Source: patent US7592419
Where two headings read alike, the source gives them in different places.

Conditions: rcm bond, CH2Cl2, 25.0 °C

`COC(=O)[C@@H]1CCCCC=CCCCC[C@H](NC(=O)OCc2ccccc2)C(=O)N2C[C@@H]3OC(C)(C)C[C@@H]3[C@H]2C(=O)N1` showed a ring closure, yield of all isomers (from C=CCCCC[C@H](NC(=O)[C@@H]1[C@H]2CC(C)(C)O[C@H]2CN1C(=O)[C@H](CCCCC=C)NC(=O)OCc1ccccc1)C(=O)OC, Grubbs I [(Cy3P)2Cl2Ru=CHPh], 50.0 mM, 24.0 h) of 58.9%.

With `COC(=O)CNC(=O)C(O)[C@@H]1CCCC=CCC[C@H](NC(=O)OCC(C)C)C(=O)N2CCC[C@H]2C(=O)N1` (stereo partly shown) the ring closure, yield of all isomers (from C=CCCC[C@H](NC(=O)[C@@H]1CCCN1C(=O)[C@H](CCC=C)NC(=O)OCC(C)C)C(O)C(=O)NCC(=O)OC, Grubbs catalyst (Grubbs I), 3.0 mM, 65.0 h) was 20%.

Compound `COC(=O)[C@@H]1CCCCC=CCCCC[C@H](NC(=O)OC(C)(C)C)C(=O)N2C[C@H]3[C@@H]([C@H]2C(=O)N1)C3(C)C` has a ring closure, yield of all isomers (from C=CCCCC[C@H](NC(=O)[C@@H]1[C@@H]2[C@H](CN1C(=O)[C@H](CCCCC=C)NC(=O)OC(C)(C)C)C2(C)C)C(=O)OC, Grubbs I [(Cy3P)2Cl2Ru=CHPh], 100.0 mM, 24.0 h) of 48.2%.

With `COC(=O)[C@@H]1CCCCC=CCCCC(C)(C)[C@H](NC(=O)OCc2ccccc2)C(=O)N2C[C@H]3[C@@H]([C@H]2C(=O)N1)C3(C)C` the ring closure, yield of all isomers (from C=CCCCC[C@H](NC(=O)[C@@H]1[C@@H]2[C@H](CN1C(=O)[C@@H](NC(=O)OCc1ccccc1)C(C)(C)CCCC=C)C2(C)C)C(=O)OC, Grubbs catalyst (Grubbs I), 101.1 mM, 24.0 h) was 44.5%.
